Reference: patent US20200339604A1, “PYRAZOLOPYRIMIDINE COMPOUNDS AS JAK INHIBITORS” (Genentech, Inc., priority 2018, published 2020)
pIC50, pKi: −log10 of the molar value. Where two headings read alike, the source gives them in different places.

Assays:
[1] = test system: JAK1-dependent STAT6 phosphorylation downstream of IL-13 stimulation, BEAS-2B human bronchial epithelial cells; assay: JAK1 pathway assay in cell lines: IL-13 stimulated STAT6 phosphorylation in BEAS-2B cells (MSD); type: cell-based; conditions: IL-13 stimulation 15 min at EC90, read-out: IL-13 p-STAT6 BEAS-2B IC50
Experimental: JAK1 Pathway Assay in Cell Lines was Carried Out as Follows:
Inhibitor potency (EC50) was determined in cell-based assays designed to measure JAK1 dependent STAT phosphorylation. As noted above, inhibition of IL-4, IL-13, and IL-9 signaling by blocking the Jak/Stat signaling pathway can alleviate asthmatic symptoms in pre-clinical lung inflammation models (Mathew et al., 2001, J Exp Med 193(9): 1087-1096; Kudlacz et. al., 2008, Eur J. Pharmacol 582(1-3): 154-161).
In one assay approach, TF-1 human erythroleukemia cells obtained from the American Type Culture Collection (ATCC; Manassas, Va.) were used to measure JAK1-dependent STAT6 phosphorylation downstream of IL-13 stimulation. Prior to use in the assays, TF-1 cells were starved of GM-CSF overnight in OptiMEM medium (Life Technologies, Grand Island, N.Y.) supplemented with 0.5% charcoal/dextran stripped fetal bovine serum (FBS), 0.1 mM non-essential amino acids (NEAA), and 1 mM sodium pyruvate. The assays were run in 384-well plates in serum-free OptiMEM medium using 300,000 cells per well. In a second assay approach, BEAS-2B human bronchial epithelial cells obtained from ATCC were plated at 100,000 cells per well of a 96-well plate one day prior to the experiment. The BEAS-2B assay was run in complete growth medium (bronchial epithelial basal medium plus bulletkit; Lonza; Basel, Switzerland).
Test compounds were serially diluted 1:2 in DMSO and then diluted 1:50 in medium just before use. Diluted compounds were added to the cells, for a final DMSO concentration of […], and incubated for 30 m (for the TF-1 assay) or […] (for the BEAS-2B assay) at 37° C. Then, cells were stimulated with human recombinant cytokine at their respective EC90 concentrations, as previously determined for each individual lot. Cells were stimulated with IL-13 (R&D Systems, Minneapolis, Minn.) for 15 min at 37° C. The TF-1 cell reactions were stopped by the direct addition of 10× lysis buffer (Cell Signaling Technologies, Danvers, Mass.), whereas the BEAS-2B cell incubations were halted by the removal of medium and addition of 1× lysis buffer. The resultant samples were frozen in the plates at −80° C. Compound mediated inhibition of STAT6 phosphorylation was measured in the cell lysates using MesoScale Discovery (MSD) technology (Gaithersburg, Md.).

[2] = molecular target: T1, isolated recombinant JAK2 kinase domain (Homo sapiens, UniProt O60674); assay: JAK enzyme assay, JAK2 kinase domain (Caliper LabChip); type: biochemical; conditions: 0.2 nM JAK2, ATP 25 μM, Morrison tight binding model
T1 construct: isolated recombinant JAK1 and JAK2 kinase domain
T1 sequence (O60674 849-1124 limits assumed): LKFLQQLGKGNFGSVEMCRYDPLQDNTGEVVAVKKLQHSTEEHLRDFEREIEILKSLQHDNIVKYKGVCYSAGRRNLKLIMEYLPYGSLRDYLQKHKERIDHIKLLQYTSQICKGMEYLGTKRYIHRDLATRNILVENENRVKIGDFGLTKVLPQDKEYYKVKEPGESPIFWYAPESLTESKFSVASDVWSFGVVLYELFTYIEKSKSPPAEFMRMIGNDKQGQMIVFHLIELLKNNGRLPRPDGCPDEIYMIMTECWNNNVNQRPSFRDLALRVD
Experimental: (§1) JAK Enzyme Assays were Carried Out as Follows:
(§2) The activity of the isolated recombinant JAK1 and JAK2 kinase domain was measured by monitoring phosphorylation of a peptide derived from JAK3 ([…] fluorescently labeled on the N-terminus with 5-carboxyfluorescein) using the Caliper LabChip® technology (Caliper Life Sciences, Hopkinton, Mass.). To determine inhibition constants (K), compounds were diluted serially in DMSO and added to 50 μL kinase reactions containing purified enzyme (1.5 nM JAK1, or 0.2 nM JAK2), 100 mM HEPES buffer (pH 7.2), 0.015% Brij-35, 1.5 μM peptide substrate, ATP (25 μM), 10 mM MgCl2, 4 mM DTT at a final DMSO concentration of 2%.
(§3) Reactions were incubated at 22° C. in 384-well polypropylene microtiter plates for 30 minutes and then stopped by addition of 25 µL of an EDTA containing solution (100 mM HEPES buffer (pH 7.2), 0.015% Brij-35, 150 mM EDTA), resulting in a final EDTA concentration of 50 mM. After termination of the kinase reaction, the proportion of phosphorylated product was determined as a fraction of total peptide substrate using the Caliper LabChip® 3000 according to the manufacturer's specifications. K values were then determined using the Morrison tight binding model (Morrison, J. F., Biochim. Biophys. Acta. 185:269-296 (1969); William, J. W. and Morrison, J. F., Meth. Enzymol., 63:437-467 (1979)) modified for ATP-competitive inhibition [Ki=Ki, app/(1+[ATP]/Km,app)].

[3] = molecular target: T2, isolated recombinant JAK1 kinase domain (Homo sapiens, UniProt P23458); assay: JAK enzyme assay, JAK1 kinase domain (Caliper LabChip); type: biochemical; conditions: 1.5 nM JAK1, ATP 25 μM, Morrison tight binding model
T2 construct: isolated recombinant JAK1 and JAK2 kinase domain
T2 sequence (P23458 875-1153 limits assumed): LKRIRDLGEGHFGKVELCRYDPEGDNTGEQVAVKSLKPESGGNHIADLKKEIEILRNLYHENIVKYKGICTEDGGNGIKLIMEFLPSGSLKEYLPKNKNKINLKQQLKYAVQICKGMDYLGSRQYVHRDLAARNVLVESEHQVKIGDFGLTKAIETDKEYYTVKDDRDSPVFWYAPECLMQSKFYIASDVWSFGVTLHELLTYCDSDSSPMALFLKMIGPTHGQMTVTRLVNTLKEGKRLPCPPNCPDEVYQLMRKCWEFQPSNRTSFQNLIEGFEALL
Experimental: as §1, §2, §3

Row | SMILES | pKi [2] | pKi [3] | pIC50 ([1]; Homo sapiens, BEAS-2B, […]) | pIC50 [1]
1 | CN1CCC(n2cc(NC(=O)c3cnn4cccnc34)c(-c3cc4c(cc3OC(F)F)NCCO4)n2)C1=O (single isomer, unassigned) [Example 10, N-[3-[6-(difluoromethoxy)-3,4-dihydro-2H-1,4-benzoxazin-7-yl]-1-(1-methyl-2-oxo-pyrrolidin-3-yl)pyrazol-4-yl]pyrazolo[1,5-a]pyrimidine-3-carboxamide] | 9.24 | 9.43 | 6.72 | 
2 | O=C(Nc1cn(C2CCCCC2=O)nc1-c1cc(Cl)ccc1OC(F)F)c1cnn2cccnc12 (racemic) [Example 1, N-[3-[5-chloro-2-(difluoromethoxy)phenyl]-1-(2-oxocyclohexyl)pyrazol-4-yl] pyrazolo [1,5-a] pyrimidine-3-carboxamide] | 8.85 | 8.96 | 7.48 | 
3 | CN1CC[C@H](n2cc(NC(=O)c3cnn4cccnc34)c(-c3cc(Cl)ccc3OC(F)F)n2)C1=O (stereo in doubt) [Example 2, N-[3-[5-chloro-2-(difluoromethoxy)phenyl]-1-[rac-(3S)-1-methyl-2-oxo-pyrrolidin-3-yl]pyrazol-4-yl]pyrazolo[1,5-a]pyrimidine-3-carboxamide] | 9.40 | 9.68 | 7.92 | 
4 | O=C(Nc1cn(C2CCCC2=O)nc1-c1cc(Cl)ccc1OC(F)F)c1cnn2cccnc12 (racemic) [Example 35, N-[3-[5-chloro-2-(difluoromethoxy)phenyl]-1-(2-oxocyclopentyl)pyrazol-4-yl]pyrazolo[1,5-a]pyrimidine-3-carboxamide] | 9.35 | 9.10 | 7.80 | 

Further compounds by rising pKi [2], results first:

Row | pKi [2] | pKi [3] | SMILES | pIC50 ([1]; Homo sapiens, BEAS-2B, […]) | pIC50 [1]
5 | 8.40 | 8.60 | CN1CCC(n2cc(NC(=O)c3cnn4cccnc34)c(-c3cc(Cl)c(C#N)cc3OC(F)F)n2)C1=O (racemic) [Example 22, N-[3-[5-chloro-4-cyano-2-(difluoromethoxy)phenyl]-1-(1-methyl-2-oxo-pyrrolidin-3-yl)pyrazol-4-yl]pyrazolo[1,5-a]pyrimidine-3-carboxamide] | 7.01 | 
6 | 9.40 | 9.11 | O=C(Nc1cn([C@H]2CCNC2=O)nc1-c1cc(Cl)ccc1OC(F)F)c1cnn2cccnc12 (single isomer, unassigned) [Example 4, N-[3-[5-chloro-2-(difluoromethoxy)phenyl]-1-(2-oxopyrrolidin-3-yl)pyrazol-4-yl]pyrazolo[1,5-a]pyrimidine-3-carboxamide] | 7.62 | 
7 | 9.51 | 9.08 | CSc1ccc(OC(F)F)c(-c2nn(C3CCN(C)C3=O)cc2NC(=O)c2cnn3cccnc23)c1 (single isomer, unassigned) [Example 7, N-[3-[2-(difluoromethoxy)-5-methylsulfanyl-phenyl]-1-(1-methyl-2-oxo-pyrrolidin-3-yl)pyrazol-4-yl]pyrazolo[1,5-a]pyrimidine-3-carboxamide] |  | 7.38
8 | 9.82 | 9.52 | CSc1ccc(OC(F)F)c(-c2nn(C3CCOC3=O)cc2NC(=O)c2cnn3cccnc23)c1 (single isomer, unassigned) [Example 29, N-[3-[2-(difluoromethoxy)-5-methylsulfanyl-phenyl]-1-(2-oxotetrahydrofuran-3-yl)pyrazol-4-yl]pyrazolo[1,5-a]pyrimidine-3-carboxamide] | 8.04 | 
